Measured values as given in paper PMC4014984, “The tetrapeptide core of the carrier peptide Xentry is cell-penetrating: novel activatable forms of Xentry” (Scientific Reports, 2014).
Square brackets hold non-standard residues; d marks the D form. Peptide text beside a SMILES is read from it. * marks the point of attachment. FITC = O=C1OC2(c3ccc(O)cc3Oc3cc(O)ccc32)c2ccc(NC(=S)*)cc21

Tests used:
HepG2 cells [1] = test system: HepG2 cells
HepG2 cells [2] = test system: HepG2 cells; remark: listed apart in the source
WM-266-4 cells = assay: Cell-penetrating ability of Xentry peptides, fluorescence microscopy; conditions: for Uptake by WM-266-4 cells: scored visually, labelled peptides incubated 3 h at 37°C, L-isomers in media without FCS, D-isomers with FCS; for Uptake by WM-266-4 cells (in words): FITC-labelled L-isomeric peptides, 10 μM, 3 h, fixed cells
BT549 cells = assay: as above; conditions: for Uptake by BT549 cells (in words): FITC-labelled L-isomeric peptides, 10 μM, 3 h, fixed cells; for Uptake by BT-549cells: scored visually, labelled peptides incubated 3 h at 37°C, L-isomers in media without FCS
HepG2 cells [3] = assay: Cell-penetrating ability of Xentry peptides, fluorescence/confocal microscopy; conditions: for Uptake by HepG2 cells (in words): FITC-labelled L-isomeric peptides, 10 μM, 3 h, fixed cells, fluorescence or confocal microscopy; for Uptake by HepG2 cells: scored visually, fluorescence microscopy, labelled peptides incubated 3 h at 37°C, L-isomers in media without FCS, D-isomers with FCS
HepG2 cells [4] = assay: Quantification of peptide uptake by overall cell fluorescence in wells (plate reader); conditions: HepG2, 10 μM, 3 h, media without FCS, plate reader ex 485 nm / em 520 nm, mean ± SD n = 4, Student's t-test
Procedure: HepG2 cells seeded into 96-well plates were incubated with L-isomeric (a), and D-isomeric (b) peptides at a final concentration of 10 μM in quadruplicate wells. The cells were incubated for 3 h, fixed with 4% formaldehyde, and fluorescence measured using a fluorescent plate reader at an excitation wavelength of 485 nm and emission wavelength of 520 nm. The fluorescence of cells was plotted as the mean ± SD (n = 4).
The cells were washed thrice with media without FCS, and peptides diluted in 100 μl of MEM media without FCS were added to the cells at a final concentration of 10 μM in quadruplicate wells. […] The fluorescence of cells was plotted as the mean ± SD (n = 4).

MCF-7 cells = assay: Uptake of activatable Xentry peptides with or without MMP-9 pretreatment; conditions: then 3 h with MCF-7 cells, fluorescence or confocal microscopy

Molecule	Uptake by WM-266-4 cells (WM-266-4 cells)	Uptake by BT549 cells (in words) (BT549 cells)	Uptake by BT-549cells (BT549 cells)	Uptake by HepG2 cells (in words) (HepG2 cells [3])	Uptake by HepG2 cells (HepG2 cells [3])	Uptake by WM-266-4 cells (in words) (WM-266-4 cells)	further results
LCLRPVGGGGGGGGGGGGGGGLCLRPVG							Uptake of linear multivalent forms of Xentry by HepG2 cells (HepG2 cells [1]): unable to penetrate
GRKKRRQRRRPPQGGRRRQQQQQQRRR [penetratin]							Effect on viability of HepG2 cells (HepG2 cells [2]): no significant affect
LCLQ	+	maintained cell-permeability	+++	did not improve uptake	++		Cell-penetrating ability compared with LCLR (overall cell fluorescence in wells) (HepG2 cells [4]): not significantly different
LLLR	-	poorly cell-permeable	-	poorly penetrated	-	poorly cell-permeable	
LCLK	+++	taken up well		taken up well		taken up well	Cell-penetrating ability compared with LCLR (overall cell fluorescence in wells) (HepG2 cells [4]): reduced activity
LCLRPVGGGRRRQQQQQQRRR							Effect on HepG2 viability relative to the other three CPPs (HepG2 cells [2]): least effect; Effect on viability of HepG2 cells (HepG2 cells [2]): no significant affect
LCLE	+++	readily taken up	+++	less well	++	readily taken up	Cell-penetrating ability compared with LCLR (overall cell fluorescence in wells) (HepG2 cells [4]): not significantly different
LCLN	+		+++		+		Cell-penetrating ability compared with LCLR (overall cell fluorescence in wells) (HepG2 cells [4]): reduced activity
LLLRR	-	poorly cell-permeable	-	failed to improve cell-penetrating ability	-	poorly cell-permeable	
LLLLR	-	poorly cell-permeable	+	poorly penetrated	+	poorly cell-permeable	
IIIR	-	poorly cell-permeable		improved cell uptake		poorly cell-permeable	
LCLRPVG			+++				
CC(C)C[C@@H](N)C(=O)N[C@H](CS)C(=O)N[C@H](CC(C)C)C(=O)N[C@H](CCCNC(=N)N)C(=O)N1CCC[C@@H]1C(=O)N[C@@H](C(=O)NCC(=O)NCC(=O)NCC(=O)NCC(=O)N1CCC[C@H]1C(=O)N[C@@H](CC(C)C)C(=O)NCC(=O)N[C@@H](CC(C)C)C(=O)N[C@@H](C)C(=O)NCC(=O)NCC(=O)N[C@H](CC(C)C)C(=O)N[C@H](CS)C(=O)N[C@H](CC(C)C)C(=O)N[C@H](CCCNC(=N)N)C(=O)N1CCC[C@@H]1C(=O)N[C@@H](C(=O)NCC(=O)N[C@H](CCCCNC(=S)Nc1ccc2c(c1)C(=O)OC21c2ccc(O)cc2Oc2cc(O)ccc21)C(=O)O)C(C)C)C(C)C [lclrpvGGGGPLGLAGGlclrpvgk-FITC] (H-[dL][dC][dL][dR][dP][dV]GGGGPLGLAGG[dL][dC][dL][dR][dP][dV]G[dK](FITC)-OH)							Uptake by MCF-7 cells after pretreatment with MMP-9 (MCF-7 cells; 10 μM peptide incubated 3 h at 37°C with activated MMP-9 (0.4 μg/ml)): led to uptake of the digested peptide; Uptake by MCF-7 cells, peptide not treated with MMP-9 (MCF-7 cells; 10 μM peptide left untreated): not cell-permeable
VVVR	-	poorly cell-permeable	-	improved cell uptake	++	poorly cell-permeable	
